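Method: 48-hour compound exposure of cells in 96-well plates, five concentrations, linear interpolation of endpoints. Here, GI50 denotes the concentration required for 50% inhibition of growth.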 Active and inactive are the calls of the source. Rule as the data show it: active = GI50 up to about 1.1 µM and inactive = higher.
Experiments:
Assay in all cases: inhibition of tumour cell growth, NCI panel, 48 h
CCRF-CEM = test system: CCRF-CEM
SK-MEL-2 = test system: SK-MEL-2
NCI-H23 = test system: NCI-H23
A498 = test system: A498
SNB-75 = test system: SNB-75
KM12 = test system: KM12
NCI-H522 = test system: NCI-H522
LOX IMVI = test system: LOX IMVI
OVCAR-3 = test system: OVCAR-3
SF-539 = test system: SF-539
M14 = test system: M14
Malme-3M = test system: Malme-3M
HOP-92 = test system: HOP-92
RXF 393 = test system: RXF 393
RPMI-8226 = test system: RPMI-8226
786-0 = test system: 786-0
OVCAR-5 = test system: OVCAR-5
MDA-MB-231 = test system: MDA-MB-231
HCT-15 = test system: HCT-15
UACC-62 = test system: UACC-62
NCI/ADR-RES = test system: NCI/ADR-RES
OVCAR-8 = test system: OVCAR-8
HCT-116 = test system: HCT-116
SK-MEL-28 = test system: SK-MEL-28
MDA-MB-435 = test system: MDA-MB-435
HL-60 = test system: HL-60
IGROV-1 = test system: IGROV-1
NCI-H226 = test system: NCI-H226
ACHN = test system: ACHN
OVCAR-4 = test system: OVCAR-4
A549 = test system: A549
TK-10 = test system: TK-10
U-251 = test system: U-251
UACC-257 = test system: UACC-257
UO-31 = test system: UO-31
SNB-19 = test system: SNB-19
SR = test system: SR
SK-MEL-5 = test system: SK-MEL-5
HT-29 = test system: HT-29
SK-OV-3 = test system: SK-OV-3
MDA-N = test system: MDA-N
NCI-H460 = test system: NCI-H460
HCC 2998 = test system: HCC 2998
Hs-578T = test system: Hs-578T
T47D = test system: T47D
PC-3 = test system: PC-3
SN12C = test system: SN12C
SW-620 = test system: SW-620
CAKI-1 = test system: CAKI-1
SF-268 = test system: SF-268
HOP-62 = test system: HOP-62
BT-549 = test system: BT-549
SF-295 = test system: SF-295
MCF7 = test system: MCF7
MOLT-4 = test system: MOLT-4
EKVX = test system: EKVX

For `COC(=O)C(=O)C(C(=O)OC)C(=O)C(=O)Nc1ccccc1C(N)=O` (stereo unspecified), the GI50 (CCRF-CEM) was > 100 µM (inactive), the GI50 (SK-MEL-2) was > 100 µM (inactive) and the GI50 (NCI-H23) was > 100 µM (inactive). For the same molecule, the GI50 (A498) was > 100 µM (inactive), the GI50 (SNB-75) was > 100 µM (inactive) and the GI50 (KM12) was > 100 µM (inactive). For the same molecule, the GI50 (NCI-H522) was > 100 µM (inactive), the GI50 (LOX IMVI) was > 100 µM (inactive) and the GI50 (OVCAR-3) was > 100 µM (inactive). For the same molecule, the GI50 (SF-539) was > 100 µM (inactive), the GI50 (M14) was > 100 µM (inactive) and the GI50 (Malme-3M) was > 100 µM (inactive). For the same molecule, the GI50 (HOP-92) was > 100 µM (inactive), the GI50 (RXF 393) was > 100 µM (inactive) and the GI50 (RPMI-8226) was > 100 µM (inactive). For the same molecule, the GI50 (786-0) was > 100 µM (inactive), the GI50 (OVCAR-5) was > 100 µM (inactive) and the GI50 (MDA-MB-231) was > 100 µM (inactive). The GI50 (HCT-15) was > 100 µM, the GI50 (UACC-62) was > 100 µM (inactive) and the GI50 (NCI/ADR-RES) was > 100 µM (inactive). The GI50 (OVCAR-8) was > 100 µM (inactive), the GI50 (HCT-116) was > 100 µM (inactive) and the GI50 (SK-MEL-28) was > 100 µM (inactive). The GI50 (MDA-MB-435) was > 100 µM (inactive), the GI50 (HL-60) was > 100 µM (inactive) and the GI50 (IGROV-1) was > 100 µM (inactive). For the same molecule, the GI50 (NCI-H226) was > 100 µM (inactive), the GI50 (ACHN) was > 100 µM (inactive) and the GI50 (OVCAR-4) was 66.5 µM (inactive). The GI50 (A549) was > 100 µM (inactive), the GI50 (TK-10) was > 100 µM (inactive) and the GI50 (U-251) was > 100 µM (inactive). For the same molecule, the GI50 (UACC-257) was > 100 µM (inactive), the GI50 (UO-31) was > 100 µM (inactive) and the GI50 (SNB-19) was > 100 µM (inactive). For the same molecule, the GI50 (SR) was > 100 µM (inactive), the GI50 (SK-MEL-5) was > 100 µM (inactive) and the GI50 (HT-29) was > 100 µM (inactive). For the same molecule, the GI50 (SK-OV-3) was > 100 µM (inactive), the GI50 (MDA-N) was > 100 µM (inactive) and the GI50 (NCI-H460) was > 10 µM (inactive). The GI50 (HCC 2998) was > 100 µM (inactive), the GI50 (Hs-578T) was > 100 µM (inactive) and the GI50 (T47D) was > 100 µM (inactive). For the same molecule, the GI50 (PC-3) was > 100 µM (inactive), the GI50 (SN12C) was > 100 µM (inactive) and the GI50 (SW-620) was > 100 µM (inactive). The GI50 (CAKI-1) was > 100 µM (inactive), the GI50 (SF-268) was > 100 µM (inactive) and the GI50 (HOP-62) was > 100 µM (inactive). The GI50 (BT-549) was > 100 µM (inactive), the GI50 (SF-295) was > 100 µM (inactive) and the GI50 (MCF7) was > 100 µM (inactive). The GI50 (MOLT-4) was > 100 µM (inactive) and the GI50 (EKVX) was > 100 µM (inactive).

From ChEMBL document CHEMBL1201862, “PubChem BioAssay data set” (2004)
